The solubility is the concentration that dissolves in the medium under given conditions.

Molecules are shown by their SMILES. ≈ marks a conversion by molar mass, not a printed value.

Common to all, as to format: physicochemical
Data set [1] is described as follows: Solubility of Compound 1 in organic solvents other than MTBE/n-heptane. The note with it: thermodynamic from solid. How it is done:
Solubility and Form Measurement
The solubility of Compound 1 was evaluated in organic solvents other than MTBE/n-heptane mixtures. The form of the residual solids was examined by XRPD.

Data set [2] in a line: Competitive slurry of Form 1 and Form 3 in MTBE/n-heptane mixtures (XRPD). From the text:
Compound 1 was also subjected to competitive slurry experiments between Compound 1, Form 1 and Compound 1, Form 3 in MTBE/n-heptane mixtures as summarized in Table 7 below.

Data set [3] in a line: Competitive slurry experiments in n-heptane (XRPD). The note with it: slurry in 10 volumes of n-heptane. The procedure:
Competitive slurry experiments were performed to ascertain if Compound 1 samples of Form 1 and mixtures of Form 1 and Form 3 can be converted to Form 3. Pure Form 1 and Form 3 were also tested. First, 700 mg of Compound 1 were added in different ratios to 10 volumes of n-heptane and stirred for […] (Table 2). After 16 hours and four days, the samples were checked for polymorphic form by XRPD. […]

Data set [4] can be described thus: Shake-flask solubility determination with stepwise addition of solvent. The source says:
The method applied was a shake-flask solubility determination with stepwise addition of the solvent until complete dissolution is observed visually.

Data set [5] in a line: Solubility determination by HPLC. The source says:
Because of the small differences in solubilities, HPLC was used to measure the solubilities. The values were conformed to the shake-flask results. […] In alcohol, there was a difference in dissolution rate. This difference was not observed for aqueous solutions.

Data set [6] can be described thus: Stability of polymorph form by pH measurement when stirred in water. How it is done:
Additional tests were performed to understand the differences between form 1 and 3. One of those tests was to check stability of polymorph form by pH measurement at several times when the different forms were stirred in water (Table 11). During the tests, any changes in polymorph form were checked.

As for `CCOC(=O)[C@@H]1CC2(CCN(c3cc(O[C@H](c4ccc(Cl)cc4-c4ccccc4)C(F)(F)F)nc(N)n3)CC2)CN1` [Compound 1, (S)-ethyl 8-(2-amino-6-((R)-1-(5-chloro-[1,1′-biphenyl]-2-yl)-2,2,2-trifluoroethoxy)pyrimidin-4-yl)-2,8-diazaspiro[4.5]decane-3-carboxylate], the solubility in data set [1] (EA/n-heptane 1:1, 10 °C, organic solvent or mixture) was 422 mg/mL (≈ 715 mM); in data set [1] (EA/n-heptane 1:3, 10 °C, organic solvent or mixture), 115 mg/mL (≈ 195 mM); in data set [1] (EtOH/n-heptane 1:1, 10 °C, organic solvent or mixture), 396 mg/mL (≈ 671 mM); in data set [1] (EtOH/n-heptane 1:3, 10 °C, organic solvent or mixture), 192 mg/mL (≈ 326 mM); in data set [1] (IPA, 10 °C, organic solvent or mixture) it was 79.6 mg/mL (≈ 135 mM); in data set [1] (IPA, 50 °C, organic solvent or mixture), greater than 518 mg/mL. The solubility in data set [1] (MTBE, 10 °C, organic solvent or mixture) is greater than 211 mg/mL; in data set [1] (MTBE, 50 °C, organic solvent or mixture), greater than 615 mg/mL; in data set [1] (acetone/n-heptane 1:1, 10 °C, organic solvent or mixture), greater than 589 mg/mL; in data set [1] (acetone/n-heptane 1:3, 10 °C, organic solvent or mixture), 208 mg/mL (≈ 353 mM); in data set [1] (n-butanol, 10 °C, organic solvent or mixture) it was 268 mg/mL (≈ 455 mM); in data set [1] (n-butanol, 50 °C, organic solvent or mixture), greater than 758 mg/mL. The solubility worked out at 9.5 mg/mL (≈ 16.1 mM) in data set [1] (n-heptane, 50 °C, organic solvent or mixture) and 1.2 mg/mL (≈ 2.03 mM) in data set [1] (water, 50 °C). For the same molecule, the “XRPD (1~2 hours)” value in data set [2] (MTBE/n-heptane 1/1(v/v), 45 °C) is reported as “Form 3”; in data set [2] (MTBE/n-heptane 1/4(v/v), 10 °C), “Form 1 +”; in data set [2] (MTBE/n-heptane 1/4(v/v), 45 °C), “Form 1+”; in data set [2] (MTBE/n-heptane 1/5(v/v), 10 °C) it was “Form 1 +”; in data set [2] (MTBE/n-heptane 1/5(v/v), 45 °C), “Form +”. Further, the “XRPD (19 hours)” value in data set [2] (MTBE/n-heptane 1/1(v/v), 45 °C) is “Form 3”; in data set [2] (MTBE/n-heptane 1/4(v/v), 45 °C), “Form 3”. Moreover, the “XRPD (65 hours)” value is “Form 3” in data set [2] (MTBE/n-heptane 1/4(v/v), 10 °C); “Form 3” in data set [2] (MTBE/n-heptane 1/5(v/v), 10 °C); “Form 3” in data set [2] (MTBE/n-heptane 1/5(v/v), 45 °C).

Regarding `CCOC(=O)[C@@H]1CC2(CCN(c3cc(O[C@H](c4ccc(Cl)cc4-c4ccccc4)C(F)(F)F)nc(N)n3)CC2)CN1` [ES928-60-3], in data set [3], the “XRPD 16 hours” value is given as “Form 3” and the “XRPD 4 days” value is listed as “Form 3”.

Take `CCOC(=O)[C@@H]1CC2(CCN(c3cc(O[C@H](c4ccc(Cl)cc4-c4ccccc4)C(F)(F)F)nc(N)n3)CC2)CN1` [Form 1, (S)-ethyl 8-(2-amino-6-((R)-1-(5-chloro-[1,1′-biphenyl]-2-yl)-2,2,2-trifluoroethoxy)pyrimidin-4-yl)-2,8-diazaspiro[4.5]decane-3-carboxylate]: the solubility is 97 to 970 mg/mL (≈ 164 to 1640 mM) in data set [4] (2-methyl-tetrahydrofuran, organic solvent or mixture, thermodynamic from solid, 2-methyl-tetrahydrofuran, read-out: Solubility); 98 to 980 mg/mL in data set [4] (2-propanol); 101 to 1010 mg/mL in data set [4] (I-propanol); 96 to 960 mg/mL (≈ 163 to 1630 mM) in data set [4] (N,N-dimethyl-acetamide, organic solvent or mixture, thermodynamic from solid, N,N-dimethyl-acetamide, read-out: Solubility); 32 to 95 mg/mL in data set [4] (acetic acid); 96 to 960 mg/mL (≈ 163 to 1630 mM) in data set [4] (acetone, organic solvent or mixture, thermodynamic from solid, acetone, read-out: Solubility). The solubility was in the range of 99 to 990 mg/mL (≈ 168 to 1680 mM) in data set [4] (acetonitrile, organic solvent or mixture, thermodynamic from solid, acetonitrile, read-out: Solubility); 101 to 1010 mg/mL (≈ 171 to 1710 mM) in data set [4] (dimethyl sulfoxide, organic solvent or mixture, thermodynamic from solid, dimethyl sulfoxide, read-out: Solubility); 96 to 960 mg/mL in data set [4] (ethanol); 101 to 1010 mg/mL (≈ 171 to 1710 mM) in data set [4] (ethyl acetate, organic solvent or mixture, thermodynamic from solid, ethyl acetate, read-out: Solubility); 97 to 970 mg/mL (≈ 164 to 1640 mM) in data set [4] (formic acid 99%, organic solvent or mixture, thermodynamic from solid, formic acid 99%, read-out: Solubility); 103 to 1030 mg/mL (≈ 175 to 1750 mM) in data set [4] (isopropyl acetate, organic solvent or mixture, thermodynamic from solid, isopropyl acetate, read-out: Solubility). Moreover, the solubility in data set [4] (methanol, organic solvent or mixture, thermodynamic from solid, methanol, read-out: Solubility) was 99 to 990 mg/mL (≈ 168 to 1680 mM); in data set [4] (methyl isobutyl, organic solvent or mixture, thermodynamic from solid, methyl isobutyl, read-out: Solubility) it was 99 to 990 mg/mL (≈ 168 to 1680 mM); in data set [4] (methyl tert-butyl ether, organic solvent or mixture, thermodynamic from solid, methyl tert-butyl ether, read-out: Solubility), 102 to 1020 mg/mL (≈ 173 to 1730 mM); in data set [4] (n-heptane, organic solvent or mixture, thermodynamic from solid, n-heptane, read-out: Solubility) it was less than 10.1 mg/mL; in data set [4] (tetrahydrofuran, organic solvent or mixture, thermodynamic from solid, tetrahydrofuran, read-out: Solubility), 97 to 970 mg/mL (≈ 164 to 1640 mM); in data set [4] (toluene, organic solvent or mixture, thermodynamic from solid, toluene, read-out: Solubility) it was 98 to 980 mg/mL (≈ 166 to 1660 mM). Moreover, the solubility in data set [4] (water, thermodynamic from solid, water, read-out: Solubility) is less than 10 mg/mL. Further, the “XRPD 16 hours” value in data set [3] is “remained as Form 1”. The “XRPD 4 days” value in data set [3] is on record as “slowly converts to Form 3”.

Turning to `CCOC(=O)[C@@H]1CC2(CCN(c3cc(O[C@H](c4ccc(Cl)cc4-c4ccccc4)C(F)(F)F)nc(N)n3)CC2)CN1` [EdA-928-63-1], in data set [5] (Ethanol Abs.), the “Conc. Actual” value came to 129000 µg/mL.

On to `CCOC(=O)[C@@H]1CC2(CCN(c3cc(O[C@H](c4ccc(Cl)cc4-c4ccccc4)C(F)(F)F)nc(N)n3)CC2)CN1` [ES928-60-1], for which, in data set [3], the “XRPD 16 hours” value is “Form 1” and the “XRPD 4 days” value was “Form 3”.

For `CCOC(=O)[C@@H]1CC2(CCN(c3cc(O[C@H](c4ccc(Cl)cc4-c4ccccc4)C(F)(F)F)nc(N)n3)CC2)CN1` [ES928-59-2], in data set [6], the “pH (2 hours)” value was 8.26, the “pH (4 hours)” value is 7.75 and the “pH (7 hours)” value is reported as 7.76.

Regarding `CCOC(=O)[C@@H]1CC2(CCN(c3cc(O[C@H](c4ccc(Cl)cc4-c4ccccc4)C(F)(F)F)nc(N)n3)CC2)CN1` [ES928-59-1], in data set [6], the “pH (2 hours)” value turned out to be 8.68, the “pH (4 hours)” value came to 8.22 and the “pH (7 hours)” value stood at 8.05.

Consider `CCOC(=O)[C@@H]1CC2(CCN(c3cc(O[C@H](c4ccc(Cl)cc4-c4ccccc4)C(F)(F)F)nc(N)n3)CC2)CN1` [ES928-59-3], for which, in data set [6], the “pH (2 hours)” value was determined as 8.71, the “pH (4 hours)” value was 8.65 and the “pH (7 hours)” value worked out at 8.32.

Take `CCOC(=O)[C@@H]1CC2(CCN(c3cc(O[C@H](c4ccc(Cl)cc4-c4ccccc4)C(F)(F)F)nc(N)n3)CC2)CN1` [ES928-60-2]: in data set [3], the “XRPD 16 hours” value was “Mixture 1” and the “XRPD 4 days” value is recorded as “Form 3”.

Turning to `CCOC(=O)[C@@H]1CC2(CCN(c3cc(O[C@H](c4ccc(Cl)cc4-c4ccccc4)C(F)(F)F)nc(N)n3)CC2)CN1` [ES-928-62-4], the “Conc. Actual” value in data set [5] (Buffer pH 1.2) is 46000 µg/mL.

Take `CCOC(=O)[C@@H]1CC2(CCN(c3cc(O[C@H](c4ccc(Cl)cc4-c4ccccc4)C(F)(F)F)nc(N)n3)CC2)CN1` [EdA-928-63-2]: the “Conc. Actual” value in data set [5] (Ethanol Abs.) came out at 58000 µg/mL.

As for `CCOC(=O)[C@@H]1CC2(CCN(c3cc(O[C@H](c4ccc(Cl)cc4-c4ccccc4)C(F)(F)F)nc(N)n3)CC2)CN1` [ES928-60-6], in data set [3], the “XRPD 16 hours” value is reported as “Form 3” and the “XRPD 4 days” value is “Form 3”.

For the molecule `CCOC(=O)[C@@H]1CC2(CCN(c3cc(O[C@H](c4ccc(Cl)cc4-c4ccccc4)C(F)(F)F)nc(N)n3)CC2)CN1` [ES-928-62-1], the solubility thermodynamic in data set [5] (buffer pH 1.2, pH 1.2, simulated gastric fluid, thermodynamic from solid, Buffer pH 1.2, read-out: Conc. Actual) is 49 mg/mL (≈ 83 mM).

For the molecule `CCOC(=O)[C@@H]1CC2(CCN(c3cc(O[C@H](c4ccc(Cl)cc4-c4ccccc4)C(F)(F)F)nc(N)n3)CC2)CN1` [ES928-60-4], in data set [3], the “XRPD 16 hours” value is given as “Form 3” and the “XRPD 4 days” value is on record as “Form 3”.

For `CCOC(=O)[C@@H]1CC2(CCN(c3cc(O[C@H](c4ccc(Cl)cc4-c4ccccc4)C(F)(F)F)nc(N)n3)CC2)CN1` [ES928-60-S], in data set [3], the “XRPD 16 hours” value was “Form 3” and the “XRPD 4 days” value is “Form 3”.

Source of the values: patent US11203597B2, “Crystalline spirocyclic compound, a dosage form containing, a method for using in treatment of disease, and a method for recrystallizing” (Altavant Sciences GmbH, priority 2018, dated 2021).
